# Experiments:
# GFP-PARP7 = GFP-PARP7 (Homo sapiens (Human), UniProt Q7Z3E1); assay: Live cell imaging of GFP-PARP7 in HeLa cells; format: cell-based; conditions: HeLa cells overexpressing GFP-PARP7 and mRuby2-Nup90, 300 nM
# [1] = test system: type I interferon reporter; assay: IRSE luciferase reporter in CT-26 cells; format: cell-based; conditions: CT-26 cells stably expressing IRSE luciferase reporter, 16 h
# Method: (§1) FIG. 4B provides of Western blots in FIG. 4A. Quantification was performed using BioRad ImageLab software. Curves were fit using four parameter nonlinear regression in GraphPad Prism. STAT1 and pSTAT1 levels were normalized to tubulin. Data was from 3 biological replicates. […] Treatment was as in FIG. 4A. Note: tubulin blot was the same as in FIG. 4A since samples were run on the same nitrocellulose membrane for western blot analysis. SE=short exposure; LE=long exposure. […] Treatment was as in FIG. 4A. Note: tubulin blot is the same as in FIG. 4A since samples were run on the same nitrocellulose membrane for western blot analysis. […] Quantification was performed using BioRad ImageLab software. Curves fitting was done using a four parameter nonlinear regression in GraphPad Prism. PARP7 levels were normalized to tubulin. Data was from 3 biological replicates. […] IFN-0 levels were determined by ELISA (PBL Assay Science). Statistical analysis was performed as one-way ANOVA in GraphPad Prism. ****=p<0.001. […] Luciferase levels were measured using a luciferase assay reagent (Promega).
# [2] = test system: STAT1 and phosphor-Tyr701-STAT1 (pSTAT1); assay: STAT1 and pSTAT1 Western blot in CT-26 cells; format: cell-based
# Method: as §1, with “(Promega). […] Treatment was same as in FIG. 10A. Note: tubulin blot is the same as in FIG. 10A since samples were run on the same nitrocellulose membrane for western blot analysis. […] Treatment was same as in FIG. 10A. […] Proteins were detected by Western blot using specific antibodies.” for “(Promega).”
# [3] = test system: STAT1 and STAT1 Tyr701 phosphorylation (pSTAT1); assay: STAT1 and pSTAT1 (Tyr701) western blot in CT-26 cells; format: cell-based, mouse; conditions: increasing concentrations, 16 h
# [4] = test system: interferon-sensitive response element (ISRE)-firefly luciferase; assay: ISRE luciferase assay, ISRE-Luc CT-26 cells; format: cell-based, mouse; conditions: 16 h, saturating doses
# Method: 10,000 ISRE-Luc CT-26 or WT CT-26 cells were seeded into wells of a white 96-well plate and grown overnight. Compounds were serial diluted at 1000× concentration in DMSO. For dosing, compound dose response curves were dilute 1:100 in culture media, then added at 1:10 dilution to cell culture. Final DMSO concentration was 0.1%. Cells were incubated in treatment for 18 hours. Following treatment, the plates were developed using ONE-Glo Luciferase Assay system (Promega) per manufacturer directions. The luminescence signal was read on a Spectra Max i3 (Molecular Devices) plate reader with a 2 second integration time. WT CT-26 signal was background subtracted and curves were fit using a four-parameter […] regression in GraphPad Prism 9.
# IFN-β = IFN-β ELISA in CT-26 cells; format: cell-based; conditions: 300 nM, 16 h, with or without STING inhibitor H-151 (500 nM)
# Method: as §1
# NCI-H1373 cells [5] = assay: Cell Titer-Glo viability, NCI-H1373; format: cell-based; conditions: Homo sapiens, NCI-H1373, 144 h; 6 days, CellTiter-Glo
# Method: NCI-H1373 cells were seeded in a white 96-well plate (Corning) at a density of 1,000 cells per well. After 24 hours, cells were treated with PARP7 inhibitors and incubated at 37° C. for 6 days. Cell viability was assessed using CellTiter-Glo (CTG) 2.0 (Promega). After addition of the CTG reagent (following manufacturer protocol), the plate was incubated on an orbital shaker for 15 min (protected from light) at room temperature. Chemiluminescence was measured on a Spectra Max i3 (Molecular Devices), normalized to DMSO-treated wells, and IC50 values were calculated by non-linear regression (three-parameter fit) analysis using Prism 9 (GraphPad).
# endogenous PARP7 = endogenous PARP7 (Mus musculus (Mouse), UniProt Q8C1B2); assay: Endogenous PARP7 protein levels in CT-26 cells (western blot); format: cell-based
# Chain of endogenous PARP7 (Q8C1B2 whole entry): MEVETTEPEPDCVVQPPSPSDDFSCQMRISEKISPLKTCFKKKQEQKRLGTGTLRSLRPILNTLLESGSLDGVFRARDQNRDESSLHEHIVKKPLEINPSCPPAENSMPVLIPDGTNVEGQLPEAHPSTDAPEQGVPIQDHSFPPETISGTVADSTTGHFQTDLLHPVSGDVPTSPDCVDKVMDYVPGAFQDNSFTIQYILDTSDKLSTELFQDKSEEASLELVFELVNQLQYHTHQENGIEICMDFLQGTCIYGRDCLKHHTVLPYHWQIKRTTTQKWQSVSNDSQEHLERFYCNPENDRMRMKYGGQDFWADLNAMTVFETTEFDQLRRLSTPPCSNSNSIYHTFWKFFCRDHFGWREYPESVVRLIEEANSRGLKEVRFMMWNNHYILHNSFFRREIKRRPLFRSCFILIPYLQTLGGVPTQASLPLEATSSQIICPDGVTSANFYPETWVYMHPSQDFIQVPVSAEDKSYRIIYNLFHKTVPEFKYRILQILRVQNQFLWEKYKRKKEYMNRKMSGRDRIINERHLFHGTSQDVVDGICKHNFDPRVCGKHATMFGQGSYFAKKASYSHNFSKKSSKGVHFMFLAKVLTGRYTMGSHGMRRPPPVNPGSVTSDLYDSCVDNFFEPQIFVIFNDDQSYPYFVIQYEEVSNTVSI
# STING = STING degradation and signaling Western blot in CT-26 cells; format: cell-based
# Method: as §1, with “(Promega). […] Treatment was same as in FIG. 10A. Note: tubulin blot is the same as in FIG. 10A since samples were run on the same nitrocellulose membrane for western blot analysis. […] Treatment was same as in FIG. 10A. […] Proteins were detected by Western blot using specific antibodies.” for “(Promega).”
# NCI-H1373 cells [6] = assay: Cell Titer-Glo viability assay in NCI-H1373 cells; format: cell-based; conditions: 6 d treatment, increasing concentrations
# Text: Curves were fit using three parameter a nonlinear regression in GraphPad Prism.
# PARP7 [7] = molecular target: T1, PARP7 (Mus musculus (Mouse), UniProt Q8C1B2); assay: Cell fractionation and PARP7 Western blot in CT-26 cells; format: cell-based; conditions: 300 nM, 18 h, fractionation
# PARP7 [8] = molecular target: T1, PARP7; assay: PARP7 protein levels Western blot in CT-26 cells; format: cell-based
# Method: as §1, with “(Promega). […] Treatment was same as in FIG. 10A. Note: tubulin blot is the same as in FIG. 10A since samples were run on the same nitrocellulose membrane for western blot analysis. […] Treatment was same as in FIG. 10A. […] Proteins were detected by Western blot using specific antibodies.” for “(Promega).”
# HiBiT-PARP7 = HiBiT-PARP7 (Mus musculus (Mouse), UniProt Q8C1B2); assay: Nuclear PARP7 immunofluorescence in HiBiT-PARP7 knockin CT-26 cells; format: cell-based; conditions: HiBiT-PARP7 KI CT-26 cells, 300 nM, 18 h
# Chain of HiBiT-PARP7 (Q8C1B2 whole entry): as above
# secreted IFN-β = assay: Interferon-β ELISA, CT-26 cells; format: cell-based, mouse; conditions: saturating doses
# Method: CT-26 cells were seeded into a 6-well plate. After 24 h, the growth media was replaced, and cells were treated with inhibitors. After treatment, growth media was harvested and assayed with PBL Verikine Mouse IFN-β ELISA kit following the manufacturer protocol.
# [9] = increasing concentrations, 16 h
# Chain of GFP-PARP7 (Q7Z3E1 whole entry): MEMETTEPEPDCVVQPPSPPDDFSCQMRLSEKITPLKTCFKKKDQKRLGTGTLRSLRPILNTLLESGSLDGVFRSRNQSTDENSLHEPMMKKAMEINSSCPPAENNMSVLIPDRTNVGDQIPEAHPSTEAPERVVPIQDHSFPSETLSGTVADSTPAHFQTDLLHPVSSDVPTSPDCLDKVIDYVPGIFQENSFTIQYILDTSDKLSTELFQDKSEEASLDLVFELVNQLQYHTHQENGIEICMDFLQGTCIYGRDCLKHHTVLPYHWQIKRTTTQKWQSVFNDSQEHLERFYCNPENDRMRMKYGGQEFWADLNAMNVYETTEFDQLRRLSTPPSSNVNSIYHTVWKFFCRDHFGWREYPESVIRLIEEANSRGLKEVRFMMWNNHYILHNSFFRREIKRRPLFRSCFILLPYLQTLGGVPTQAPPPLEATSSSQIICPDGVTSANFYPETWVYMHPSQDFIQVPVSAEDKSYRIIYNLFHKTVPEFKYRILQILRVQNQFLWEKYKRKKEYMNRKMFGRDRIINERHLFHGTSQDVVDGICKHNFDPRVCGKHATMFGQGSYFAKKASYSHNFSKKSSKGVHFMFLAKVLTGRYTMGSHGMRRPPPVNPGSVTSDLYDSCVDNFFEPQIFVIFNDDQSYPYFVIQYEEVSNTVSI
smiles,measurement,setting,value
C[C@@H](COCCC(=O)N1CCN(c2ncc(C(F)(F)F)cn2)CC1)Nc1cn[nH]c(=O)c1C(F)(F)F [RBN-2397],time to detectable increase in nuclear PARP7 levels,GFP-PARP7,≤ 30 min
same,type I interferon reporter levels,[1],increase type I interferon reporter levels in a dose dependent manner
same,"STAT1 and pSTAT1 levels, time dependence",[2]; 300 nM,increase STAT1 and pSTAT1 in a time-dependent manner
same,"STAT1 and pSTAT1 levels, dose dependence",[2]; [9],increase STAT1 and phosphor-Tyr701-STAT1 (pSTAT1) in a dose-dependent manner
same,STAT1 and pSTAT1 levels,[3],dose-dependently increased STAT1 and pSTAT1 levels
same,magnitude of ISRE-Luc response compared to Example 10,[4],~2 fold
same,IFN-β levels,IFN-β,increase IFN-β levels in a STING-dependent manner
same,EC50,NCI-H1373 cells [5],17.8 nM
same,endogenous PARP7 levels,endogenous PARP7,increased PARP7 levels
same,increase in PARP7 protein abundance compared to Example 10,endogenous PARP7; saturating doses,2 fold
same,"STING and pIRF3 levels, time dependence",STING; 300 nM,decrease STING levels and increase pIRF3 levels in a time-dependent manner
same,STING degradation and signaling,STING; [9],"induced STING degradation and signaling, but not to the same extent as a STING agonist"
same,cell viability,NCI-H1373 cells [6],decreases viability
same,subcellular localisation of PARP7,PARP7 [7],PARP7 levels were only detected in nucleus
same,"PARP7 levels, time dependence",PARP7 [8]; 300 nM,increase PARP7 levels in a time-dependent manner
same,"PARP7 levels, dose dependence",PARP7 [8]; [9],increase PARP7 levels in a dose-dependent manner
same,nuclear PARP7 protein levels,HiBiT-PARP7,increases nuclear PARP7 protein levels
same,levels of secreted IFN-β,secreted IFN-β,increased significantly the levels of secreted IFN-β to a greater extent than Example 10

# Source: US20260055079A1, “PHTHALAZINONE COMPOUNDS AS PARP7 INHIBITORS” (AZKARRA THERAPEUTICS, INC., priority 2022, published 2026)
